Measurements as given in ChEMBL document CHEMBL1909046, “DrugMatrix in vitro pharmacology data”.

Key:
[1] = target: cGMP-specific 3',5'-cyclic phosphodiesterase (Homo sapiens, UniProt O76074); test: DRUGMATRIX: Phosphodiesterase PDE5 enzyme inhibition (substrate: [3H]cGMP + cGMP); format: tissue-based; conditions: platelet; Not Active = under 50% inhibition at 10 µM
[2] = target: T1, C-X-C chemokine receptor type 1 (Homo sapiens, UniProt P25024); further: in other assays of this panel Not Active means under 50% inhibition at 10 µM
T1 sequence (P25024 whole entry): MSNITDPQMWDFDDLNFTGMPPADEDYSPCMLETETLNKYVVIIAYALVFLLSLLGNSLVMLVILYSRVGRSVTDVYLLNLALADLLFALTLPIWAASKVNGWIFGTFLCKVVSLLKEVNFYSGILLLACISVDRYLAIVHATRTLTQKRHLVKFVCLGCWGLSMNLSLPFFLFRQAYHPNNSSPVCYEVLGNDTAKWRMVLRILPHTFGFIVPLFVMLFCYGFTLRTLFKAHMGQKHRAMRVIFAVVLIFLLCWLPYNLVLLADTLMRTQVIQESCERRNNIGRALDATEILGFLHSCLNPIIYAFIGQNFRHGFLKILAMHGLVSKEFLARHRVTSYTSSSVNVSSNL

[3] = target: Vascular endothelial growth factor receptor 1 (Homo sapiens, UniProt P17948); format: cell-based; conditions: huvec; further: in other assays of this panel Not Active means under 50% inhibition at 10 µM
[4] = DRUGMATRIX: Phosphodiesterase PDE3 enzyme inhibition (substrate: [3H]cAMP + cAMP); format: tissue-based, Homo sapiens; conditions: platelet; Not Active = under 50% inhibition at 10 µM
[5] = DRUGMATRIX: Sodium/nucleoside co-transporter radioligand binding (ligand: nitrobenzylthioinosine); format: cell membranes, Cavia porcellus, Dunkin-Hartley, Cerebral cortex, Membrane; conditions: Not Active = under 50% inhibition at 10 µM
[6] = target: 5-hydroxytryptamine receptor 2B (Homo sapiens, UniProt P41595); format: cell membranes, CHO-K1, Membrane; conditions: cho-k1; further: in other assays of this panel Not Active means under 50% inhibition at 10 µM
[7] = target: T2, Alpha-1B adrenergic receptor (Rattus norvegicus, UniProt P15823); test: DRUGMATRIX: Alpha-1B adrenergic receptor radioligand binding (ligand: prazosin); format: cell membranes, Wistar, Liver, Membrane; conditions: Not Active = under 50% inhibition at 10 µM
T2 sequence (P15823 whole entry): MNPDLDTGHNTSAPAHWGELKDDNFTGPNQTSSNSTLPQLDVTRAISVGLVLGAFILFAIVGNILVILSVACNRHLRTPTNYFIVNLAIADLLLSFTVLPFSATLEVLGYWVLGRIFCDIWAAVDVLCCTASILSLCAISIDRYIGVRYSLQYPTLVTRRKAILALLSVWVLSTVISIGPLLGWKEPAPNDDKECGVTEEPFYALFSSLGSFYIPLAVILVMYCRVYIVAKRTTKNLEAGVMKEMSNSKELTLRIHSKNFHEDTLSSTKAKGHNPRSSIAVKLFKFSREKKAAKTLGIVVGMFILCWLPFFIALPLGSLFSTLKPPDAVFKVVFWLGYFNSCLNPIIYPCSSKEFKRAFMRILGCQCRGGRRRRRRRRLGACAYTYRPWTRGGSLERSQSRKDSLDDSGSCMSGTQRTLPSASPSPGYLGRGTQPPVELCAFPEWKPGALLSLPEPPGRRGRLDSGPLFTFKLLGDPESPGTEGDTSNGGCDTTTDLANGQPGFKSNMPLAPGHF

[8] = target: T3, Amine oxidase [flavin-containing] A (Homo sapiens, UniProt P21397); test: DRUGMATRIX: Monoamine Oxidase MAO-A enzyme inhibition (substrate: Kynuramine); design: species or system BTI-TN-5B1-4; conditions: bti-tn-5b1-4; Not Active = under 50% inhibition at 10 µM
T3 sequence (P21397 whole entry): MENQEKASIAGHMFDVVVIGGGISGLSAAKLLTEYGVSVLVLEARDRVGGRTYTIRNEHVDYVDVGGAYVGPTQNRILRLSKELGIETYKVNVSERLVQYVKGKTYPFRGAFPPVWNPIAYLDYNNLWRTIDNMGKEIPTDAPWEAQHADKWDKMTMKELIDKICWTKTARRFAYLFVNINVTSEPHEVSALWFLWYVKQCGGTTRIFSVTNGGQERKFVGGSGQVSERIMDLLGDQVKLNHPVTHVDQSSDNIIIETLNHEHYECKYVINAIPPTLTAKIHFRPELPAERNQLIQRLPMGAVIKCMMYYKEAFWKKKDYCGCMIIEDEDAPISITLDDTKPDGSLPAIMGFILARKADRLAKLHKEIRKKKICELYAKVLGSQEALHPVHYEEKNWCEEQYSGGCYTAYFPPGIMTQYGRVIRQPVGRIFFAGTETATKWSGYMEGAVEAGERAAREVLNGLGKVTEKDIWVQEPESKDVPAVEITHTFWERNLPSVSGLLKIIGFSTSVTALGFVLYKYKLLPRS

5-hydroxytryptamine receptor 2B, sequence (P41595 whole entry): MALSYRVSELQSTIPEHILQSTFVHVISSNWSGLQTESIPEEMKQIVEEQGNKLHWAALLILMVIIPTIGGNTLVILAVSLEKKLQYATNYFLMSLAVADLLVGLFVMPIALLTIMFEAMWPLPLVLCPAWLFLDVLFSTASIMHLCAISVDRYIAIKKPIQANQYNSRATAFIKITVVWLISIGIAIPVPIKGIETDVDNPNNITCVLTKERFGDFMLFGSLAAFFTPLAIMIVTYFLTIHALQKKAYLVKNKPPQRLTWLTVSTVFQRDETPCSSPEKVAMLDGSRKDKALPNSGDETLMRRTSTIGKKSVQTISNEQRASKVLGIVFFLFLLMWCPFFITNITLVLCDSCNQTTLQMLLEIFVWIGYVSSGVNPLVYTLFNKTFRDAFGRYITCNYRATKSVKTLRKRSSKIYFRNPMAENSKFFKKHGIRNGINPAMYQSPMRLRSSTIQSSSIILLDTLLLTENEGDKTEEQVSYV
Vascular endothelial growth factor receptor 1, sequence (P17948 whole entry): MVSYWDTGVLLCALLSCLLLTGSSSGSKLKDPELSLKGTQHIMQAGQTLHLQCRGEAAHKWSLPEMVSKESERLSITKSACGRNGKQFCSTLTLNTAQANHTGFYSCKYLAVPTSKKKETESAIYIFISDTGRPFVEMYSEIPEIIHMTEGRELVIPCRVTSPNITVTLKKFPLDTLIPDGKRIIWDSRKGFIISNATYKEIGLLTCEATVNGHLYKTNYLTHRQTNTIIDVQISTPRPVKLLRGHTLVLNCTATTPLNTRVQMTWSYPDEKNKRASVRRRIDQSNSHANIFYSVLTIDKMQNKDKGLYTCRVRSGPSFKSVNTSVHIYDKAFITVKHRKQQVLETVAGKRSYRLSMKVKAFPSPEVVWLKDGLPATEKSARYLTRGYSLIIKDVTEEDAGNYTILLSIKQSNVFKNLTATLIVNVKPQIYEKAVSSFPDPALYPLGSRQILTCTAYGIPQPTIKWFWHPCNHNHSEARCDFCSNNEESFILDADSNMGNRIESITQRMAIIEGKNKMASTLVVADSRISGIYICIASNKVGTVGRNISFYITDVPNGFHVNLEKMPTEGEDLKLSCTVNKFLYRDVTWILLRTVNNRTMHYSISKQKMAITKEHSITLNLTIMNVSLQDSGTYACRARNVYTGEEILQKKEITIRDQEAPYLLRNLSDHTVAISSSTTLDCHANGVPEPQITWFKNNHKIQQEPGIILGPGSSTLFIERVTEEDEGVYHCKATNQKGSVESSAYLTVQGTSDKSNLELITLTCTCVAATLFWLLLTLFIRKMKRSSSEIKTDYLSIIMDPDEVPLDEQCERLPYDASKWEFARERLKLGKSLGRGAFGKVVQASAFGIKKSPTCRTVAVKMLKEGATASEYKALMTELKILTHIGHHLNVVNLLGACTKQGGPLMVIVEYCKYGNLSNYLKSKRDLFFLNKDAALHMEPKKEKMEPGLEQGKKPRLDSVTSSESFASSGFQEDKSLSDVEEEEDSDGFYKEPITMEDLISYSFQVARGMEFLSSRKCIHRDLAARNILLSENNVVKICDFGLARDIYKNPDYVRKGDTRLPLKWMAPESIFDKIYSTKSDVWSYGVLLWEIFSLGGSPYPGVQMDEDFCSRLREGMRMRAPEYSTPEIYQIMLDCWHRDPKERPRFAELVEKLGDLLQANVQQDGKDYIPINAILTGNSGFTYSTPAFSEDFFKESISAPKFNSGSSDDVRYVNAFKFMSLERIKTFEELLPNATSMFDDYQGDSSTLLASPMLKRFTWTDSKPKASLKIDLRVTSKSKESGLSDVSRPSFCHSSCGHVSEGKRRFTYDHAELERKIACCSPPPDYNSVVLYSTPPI

CC1Cc2ccccc2N1NC(=O)c1ccc(Cl)c(S(N)(=O)=O)c1 (stereo not given) [INDAPAMIDE]
Not Active: IC50 [1] | IC50 [2] | IC50 [3] | IC50 [4] | Ki [4] | IC50 [5] | Ki [5] | IC50 [6] | IC50 [7] | IC50 [8]

Cc1ccc(-c2cc(C(F)(F)F)nn2-c2ccc(S(N)(=O)=O)cc2)cc1 [CELECOXIB]
Not Active: IC50 [1] | IC50 [2] | IC50 [3] | IC50 [4] | Ki [4] | IC50 [5] | Ki [5] | IC50 [6] | IC50 [7] | IC50 [8]

CCCCc1nc(Cl)c(CO)n1Cc1ccc(-c2ccccc2-c2nnn[nH]2)cc1 [LOSARTAN]
Not Active: IC50 [1] | IC50 [2] | IC50 [3] | IC50 [4] | Ki [4] | IC50 [5] | Ki [5] | IC50 [6] | IC50 [7] | IC50 [8]

CC(NC(C)(C)C)C(=O)c1cccc(Cl)c1 (stereo not given) [BUPROPION]
Not Active: IC50 [1] | IC50 [2] | IC50 [3] | IC50 [4] | Ki [4] | IC50 [5] | Ki [5] | IC50 [6] | IC50 [7] | IC50 [8]

COc1cc2c3cc1Oc1cc(ccc1O)C[C@@H]1c4c(cc(OC)c(O)c4Oc4ccc(cc4)C[C@@H]3N(C)CC2)CC[N+]1(C)C.[Cl-]
Not Active: IC50 [1] | IC50 [2] | IC50 [3] | IC50 [4] | Ki [4] | IC50 [5] | Ki [5] | IC50 [6] | IC50 [7] | IC50 [8]

CCC(C)n1ncn(-c2ccc(N3CCN(c4ccc(OCC5COC(Cn6cncn6)(c6ccc(Cl)cc6Cl)O5)cc4)CC3)cc2)c1=O (stereo not given) [ITRACONAZOLE]
Not Active: IC50 [1] | IC50 [2] | IC50 [3] | IC50 [4] | Ki [4] | IC50 [5] | Ki [5] | IC50 [6] | IC50 [7] | IC50 [8]

CADMIUM ACETATE
Not Active: IC50 [1] | Ki [1] | IC50 [2] | Ki [2] | IC50 [3] | Ki [3] | IC50 [4] | Ki [4] | IC50 [5] | Ki [5] | IC50 [6] | Ki [6] | IC50 [7] | Ki [7] | IC50 [8] | Ki [8]

Cc1ccc(N(CC2=NCCN2)c2cccc(O)c2)cc1 [PHENTOLAMINE]
Not Active: IC50 [1] | IC50 [2] | IC50 [3] | IC50 [4] | Ki [4] | IC50 [5] | Ki [5] | IC50 [8]

CN(C)CCCN1c2ccccc2Sc2ccc(Cl)cc21 [CHLORPROMAZINE]
Not Active: IC50 [1] | IC50 [2] | IC50 [3] | IC50 [4] | Ki [4] | IC50 [5] | Ki [5] | IC50 [8]

C[C@]12CC[C@@H]3c4ccc(O)cc4CC[C@H]3[C@@H]1CCC2=O [ESTRONE]
Not Active: IC50 [1] | IC50 [2] | IC50 [3] | IC50 [4] | Ki [4] | IC50 [5] | Ki [5] | IC50 [7] | IC50 [8]

Clc1cccc(Cl)c1NC1=NCCN1 [CLONIDINE]
Not Active: IC50 [1] | IC50 [2] | IC50 [3] | IC50 [4] | Ki [4] | IC50 [5] | Ki [5] | IC50 [6] | IC50 [8]
